Source: paper PMC11809514, “Investigation of the activity of 4-aminoquinolines as cysteine protease inhibitors with application in the treatment of Chagas disease” (Memórias do Instituto Oswaldo Cruz, 2025)
Where two headings read alike, the source gives them in different places.

Legend:
[1] = system: T. cruzi Tulahuen strain (amastigotes and trypomastigotes); assay: Anti-T. cruzi activity assay (amastigotes and trypomastigotes) in infected L929 cells, beta-galactosidase reporter; assay type: cell-based, Trypanosoma cruzi; settings: 96 h exposure
Method: Anti-T. cruzi activity assay (amastigotes and trypomastigotes) - The in vitro anti-T. cruzi activity was evaluated on L929 cells (mouse fibroblasts) infected with Tulahuen strain of the parasite expressing the Escherichia coli β-galactosidase as reporter gene according to the method described previously.[49] Briefly, for the bioassay, 4,000 L929 cells were added to each well of a 96-well microtiter plate. After an overnight incubation, 40,000 trypomastigotes were added to the cells and incubated for 2 h. Then the medium containing extracellular parasites was replaced with 200 μL of fresh medium and the plate was incubated for an additional 48 h to establish the infection. For IC50 determination, the cells were exposed to each synthesized compound at serial decreasing dilutions and the plate was incubated for 96 h. After this period, 50 μL of 500 μM chlorophenol red beta-D-galactopyranoside (CPRG) in 0.5% Nonidet P40 was added to each well, and the plate was incubated for 16 to 20 h, after which the absorbance at 570 nm was measured. Controls with uninfected cells, untreated infected cells, infected cells treated with benznidazole at 3.8 μM (positive control) or DMSO 1% were used. The results were expressed as the percentage of T. cruzi growth inhibition in compound tested cells as compared to the infected cells and untreated cells. The IC50 values were calculated by linear interpolation. Quadruplicates were run in the same plate, and the experiments were repeated at least once.
(§1) IC50 over T. cruzi and L929 cells were determined by linear interpolation and the selectivity index (SI) was calculated by the ratio of CC50 L929 cells/ IC50 T. cruzi.

[2] = system: L929 cells (mouse fibroblasts); assay: In vitro cytotoxicity over L929 cell line (alamarBlue); assay type: cell-based; settings: ratio CC50 L929 / IC50 T. cruzi
Method: (§2) In vitro cytotoxic activity test of compounds and CC 50 determination over L929 cell line - For this bioassay, 4,000 L929 cells in 200 μL of RPMI-1640 medium (pH 7.2-7.4) (Gibco BRL) plus 10% foetal bovine serum and 2 mM glutamine were added to each well of a 96-well microtiter plate that was incubated for three days at 37 °C. The medium was then replaced, and the cells were exposed to compounds at increasing concentrations starting at IC50 value for T. cruzi. After 96 h of incubation with the compounds the alamarBlueTM was added and the absorbance at 570 and 600 nm was measured after 4-6 h. Controls with untreated and DMSO 1%-treated cells were run in parallel. The results were expressed as the percent difference in the reduction between treated and untreated cells. The compound concentration that inhibits 50% of the L929 cell viability (CC50) was determined. Quadruplicates were run in the same plate and the experiments were repeated at least once.
as §1

[3] = system: cruzain; settings: cited from earlier work
[4] = system: mammalian cathepsin S; design: method as in PMID 28215783, PMID 32116030; settings: cited from earlier work
[5] = system: mammalian cathepsin B; design: method as in PMID 28215783, PMID 32116030; settings: cited from earlier work
[6] = molecular target: T1, Recombinant TbrCatL (Trypanosoma brucei rhodesiense, UniProt Q95PM0); assay: TbrCatL inhibition, cleavage of fluorogenic substrate Z-FR-AMC; assay type: biochemical, T. brucei
T1 construct: gift: Prof Conor Caffrey (University of California San Diego)
T1 sequence (Q95PM0 entry or part of it): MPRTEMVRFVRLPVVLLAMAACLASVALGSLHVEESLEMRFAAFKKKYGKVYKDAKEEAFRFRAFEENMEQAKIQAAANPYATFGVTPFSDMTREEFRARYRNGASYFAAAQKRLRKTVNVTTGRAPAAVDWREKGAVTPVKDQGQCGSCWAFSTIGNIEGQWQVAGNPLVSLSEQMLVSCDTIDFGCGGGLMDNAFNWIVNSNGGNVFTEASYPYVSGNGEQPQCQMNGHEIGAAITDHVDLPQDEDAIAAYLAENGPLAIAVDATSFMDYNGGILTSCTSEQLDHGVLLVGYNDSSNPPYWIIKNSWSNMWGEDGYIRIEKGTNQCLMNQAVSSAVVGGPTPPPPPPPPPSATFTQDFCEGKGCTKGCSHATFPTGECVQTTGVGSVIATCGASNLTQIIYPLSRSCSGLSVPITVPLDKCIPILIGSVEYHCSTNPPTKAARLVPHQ
Method: (§3) Assays against cruzain and TbrCATL - Recombinant cruzain and TbrCatL were generously provided by Allison Doak and Prof Brian Shoichet (University of California San Francisco, San Francisco, CA, USA) and Prof Conor Caffrey (University of California San Diego, San Diego, CA, USA), respectively. Enzyme activity was measured by monitoring the cleavage of the fluorogenic substrate Z-Phe-Arg-amidomethylcoumarin (Z-FR-AMC) at 25 °C. Fluorescence was monitored at 340/440 nm (excitation/emission) in a Biotec 87 Synergy 2 fluorimeter. Assays were conducted in 96-well flat bottom black plates in 0.1 M sodium acetate buffer, pH 5.5, 10 mM β-mercaptoethanol, 0.01% Triton X-100, […] enzyme and 2.5 µM substrate. DMSO and 1 µM E-64 were employed as negative and positive controls, respectively, in all assays. Assays were performed in triplicate, and enzyme activity was measured for 5 min. Reported values correspond to the mean and standard error of the mean (SEM).
(§4) Compounds were initially screened at a concentration of 100 µM against cruzain with and without a 10 min pre-incubation with the enzyme. […] IC50 values were determined from two independent experiments, each with seven compounds concentrations in triplicate. Dose-response curves were built by non-linear regression with Graph Pad Prism 6.

[7] = molecular target: T2, Recombinant cruzain (Trypanosoma cruzi, UniProt P25779); assay: Cruzain inhibition, cleavage of fluorogenic substrate Z-FR-AMC; assay type: biochemical; settings: for inhibition at 23 µM: compound at 23 µM
T2 construct: gift: Allison Doak and Prof Brian Shoichet (University of California San Francisco)
T2 sequence (P25779 123-467): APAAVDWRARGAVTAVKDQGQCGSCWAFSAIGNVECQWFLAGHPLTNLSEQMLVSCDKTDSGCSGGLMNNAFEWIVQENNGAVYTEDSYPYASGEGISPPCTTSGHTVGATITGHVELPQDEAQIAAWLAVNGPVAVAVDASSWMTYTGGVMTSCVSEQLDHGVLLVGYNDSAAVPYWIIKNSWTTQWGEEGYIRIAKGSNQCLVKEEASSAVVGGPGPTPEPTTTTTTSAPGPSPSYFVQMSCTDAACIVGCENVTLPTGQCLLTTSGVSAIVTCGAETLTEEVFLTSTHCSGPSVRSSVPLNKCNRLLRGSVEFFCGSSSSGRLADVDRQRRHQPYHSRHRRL
Method: as §3, §4
To evaluate the effects of Triton X-100 concentration on enzyme inhibition, assays were conducted using 0.1%, 0.01% and 0% Triton X-100. To access the impact of pre-incubation of bovine serum albumin (BSA) on enzyme inhibition, compounds were incubated with BSA (4 mg/mL, for a final assay concentration of 1 mg/mL) for 10’ followed by 10’ incubation with 2 nM enzyme. Finally, Z-FR-AMC was added to each well and the fluorescence was immediately read.

[8] = In vitro cytotoxicity over L929 cell line (alamarBlue); assay type: cell-based, mouse; settings: mouse, L929 cells (mouse fibroblasts); uninfected L929 cells; 96 h incubation
Method: as §2, §1

[9] = 100 µM compound, 10 min pre-incubation with enzyme, read-out: % Inhibition at 100 µM (Mean ± SEM) TbrCATL 10' pre-incubation
[10] = 100 µM compound, 10 min pre-incubation with enzyme, 0.01% Triton X-100, read-out: % Inhibition at 100 µM (Mean ± SEM) Cruzain 10' pre-incubation
[11] = 100 µM compound, no pre-incubation, 0.01% Triton X-100, read-out: % Inhibition at 100 µM (Mean ± SEM) Cruzain No pre-incubation

## O=C(Cn1ccnc1[N+](=O)[O-])NCc1ccccc1 [Benznidazole, reference compound]
[1]; Trypanosoma cruzi
  IC50: 3.8 ± 0.8 µM
[2]
  SI (selectivity index), CC50 L929 cells / IC50 T. cruzi: 626

## Clc1ccc2[nH]c3c(NCCCN4CCOCC4)ncnc3c2c1 [Compound 1]
[3]; hit from HTS
  IC50: 2.5 µM
[3]; non-covalent competitive inhibitor from HTS
  Ki: 2 µM

## Clc1ccc2c(NCCCN3CCOCC3)ccnc2c1 [Compound 2]
[4]
  Inhibition of mammalian cathepsin S: did not inhibit
[5]
  Inhibition of mammalian cathepsin B: did not inhibit

## CC(C)(CN)CNc1ccnc2cc(Cl)ccc12 [Compound 3]
[4]
  Inhibition of mammalian cathepsin S: did not inhibit
[5]
  Inhibition of mammalian cathepsin B: did not inhibit

## Clc1ccc2c(NC3CCCCC3)ccnc2c1 [Compound 4, 7-chloro-N-cyclohexylquinolin-4-amine]
[1]; Trypanosoma cruzi
  IC50: 2.57 ± 0.11 µM
[6]; [9]
  inhibition at 100 µM: 38 ± 4%
[7]; [10]
  inhibition at 100 µM: 18 ± 2%
[7]; [11]
  inhibition at 100 µM: 19 ± 1%
[8]
  CC50 at 96 h: < 2.3 µM

## Clc1ccc2c(NCc3ccco3)ccnc2c1 [Compound 5, 7-chloro-N-(furan-2-ylmethyl)quinolin-4-amine]
[1]; Trypanosoma cruzi
  IC50: 143 µM
[6]; [9]
  inhibition at 100 µM: 94 ± 1%
[6]; 100 µM compound, no pre-incubation, read-out: % Inhibition at 100 µM (Mean ± SEM) TbrCATL No pre-incubation
  inhibition at 100 µM: 87 ± 3%
[6]; two independent experiments, seven concentrations in triplicate, read-out: IC50 against TbrCatL
  IC50: 29 µM
[7]; [10]
  inhibition at 100 µM: 99 ± 1%
[7]; [11]
  inhibition at 100 µM: 93 ± 1%
[7]; 0.01% Triton X-100, read-out: % Inhibition of cruzain (Mean ± SEM) Triton 0.01%
  inhibition at 23 µM: 28.4 ± 2%
[7]; 0.1% Triton X-100, read-out: % Inhibition of cruzain (Mean ± SEM) Triton 0.1%
  inhibition at 23 µM: 28.4 ± 3%
[7]; no Triton X-100, read-out: % Inhibition of cruzain (Mean ± SEM) Triton 0%
  inhibition at 23 µM: 100 ± 1%
[7]; pre-incubation with BSA (final 1 mg/mL), no Triton X-100, read-out: % Inhibition of cruzain (Mean ± SEM) BSA + Triton 0%
  inhibition at 23 µM: 32.2 ± 1%
[7]; two independent experiments, seven concentrations in triplicate, read-out: IC50 against cruzain
  IC50: 23 µM

## N-butyl-7-chloroquinolin-4-amine [Compound 6]
[1]
  IC50: 150 µM
[6]; 100 µM compound, 10 min pre-incubation with enzyme
  % Inhibition at 100 µM (Mean ± SEM) TbrCATL 10' pre-incubation: 42 ± 4%
[7]; 100 µM compound, 10 min pre-incubation with enzyme, 0.01% Triton X-100
  % Inhibition at 100 µM (Mean ± SEM) Cruzain 10' pre-incubation: 35 ± 1%
[7]; 100 µM compound, no pre-incubation, 0.01% Triton X-100
  % Inhibition at 100 µM (Mean ± SEM) Cruzain No pre-incubation: 35 ± 1%
